Experimental data taken from patent publication US7365202B2, “Polymorphs of an androgen receptor modulator” (Merck & Co., Inc., priority 2005, dated 2008).

Assays:
[1] = Excerpt: The weight increase was based on the initial total sample weight at 25% RH.
[2] = molecular target: T1, rhAR NTD/CTD interaction in CV-1 monkey kidney cells (Macaca mulatta, UniProt Q6QT55); experiment: Mammalian two-hybrid assay for ligand-induced interaction of N-terminus and C-terminus domains of the androgen receptor (agonist mode: VIRCON); format: cell-based; conditions: at 10 micromolar; read-out: agonist activity (Emax relative to the activity obtained with 3 nM R1881)
T1 construct: pCBB1 (Gal4DBD-rhARLBD fusion construct expressed under the SV40 early promoter); expressed in transfected cells; host or cells: CV-1 monkey kidney cells
T1 sequence (Q6QT55 644-895): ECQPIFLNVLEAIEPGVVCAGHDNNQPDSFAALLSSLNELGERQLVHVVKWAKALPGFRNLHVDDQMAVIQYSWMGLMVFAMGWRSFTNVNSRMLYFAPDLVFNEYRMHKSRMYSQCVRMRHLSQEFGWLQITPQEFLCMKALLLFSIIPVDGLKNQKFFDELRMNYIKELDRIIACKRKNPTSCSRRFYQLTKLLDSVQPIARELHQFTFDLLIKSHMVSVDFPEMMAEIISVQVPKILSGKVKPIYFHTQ
Excerpt: Mammalian Two-Hybrid Assay for the Ligand-Induced Interaction of N-Terminus and C-Terminus Domains of the Androgen Receptor (Agonist Mode: VIRCON)
This assay assesses the ability of AR agonists to induce the interaction between the N-terminal domain (NTD) and C-terminal domain (CTD) of rhAR that reflects the in vivo virilizing potential mediated by activated androgen receptors. The interaction of NTD and CTD of rhAR is quantified as ligand induced association between a Gal4DBD-rhARCTD fusion protein and a VP16-rhARNTD fusion protein as a mammalian two-hybrid assay in CV-1 monkey kidney cells.
The day before transfection, CV-1 cells are trypsinized and counted, and then plated at 20,000 cells/well in 96-well plates or larger plates (scaled up accordingly) in DMEM+10% FCS. […]
For each well, 0.4 μL LIPOFECTAMINE Reagent (GIBCO-BRL) is diluted into 4.6 μL OPTI-MEM in a second tube and mixed to form the diluted LIPOFECTAMINE Reagent. […] Forty eight hours later, luciferase activity is measured using LUC-Screen system (TROPIX) following the manufacturer's protocol. […] After incubation for 40 minutes at room temperature, luminescence is directly measured with 2-5 second integration. […]

[3] = system: human AR in MDA-MB-453 cells; experiment: Trans-Activation Modulation of Androgen Receptor (TAMAR), MMTV-LUC reporter; format: cell-based
Experimental: Trans-Activation Modulation of Androgen Receptor (TAMAR)
This assay assesses the ability of test compounds to control transcription from the MMTV-LUC reporter gene in MDA-MB-453 cells, a human breast cancer cell line that naturally expresses the human AR. The assay measures induction of a modified MMTV LTR/promoter linked to the LUC reporter gene.
20,000 to 30,000 cells/well are plated in a white, clear-bottom 96-well plate in “Exponential Growth Medium” which consists of phenol red-free RPMI 1640 containing 10%FBS, 4 mM L-glutamine, 20 mM HEPES, 10 ug/mL human insulin, and 20 ug/mL gentamicin. Incubator conditions are 37° C. and 5% CO2. The transfection is done in batch mode. The cells are trypsinized and counted to the right cell number in the proper amount of fresh media, and then gently mixed with the Fugene/DNA cocktail mix and plated onto the 96-well plate. All the wells receive 200 TI of medium+lipid/DNA complex and are then incubated at 37° C. overnight. The transfection cocktail consists of serum-free Optimem, Fugene6 reagent and DNA. The manufacturer's (Roche Biochemical) protocol for cocktail setup is followed. The lipid (Tl) to DNA (Tg) ratio is approximately 3:2 and the incubation time is 20 minutes at room temperature. Sixteen to 24 hrs after transfection, the cells are treated with test compounds such that the final DMSO (vehicle) concentration is <3%. […]

In the case of `CN1C(=O)C(F)=C[C@]2(C)[C@H]3CC[C@]4(C)[C@@H](C(=O)NCc5nc6ncccc6[nH]5)CC[C@H]4[C@@H]3CC[C@@H]12` [Form B, N-(3H-imidazo[4,5-b]pyridin-2-ylmethyl)-2-fluoro-4-methyl-3-oxo-4-aza-5α-androst-1-en-17β-carboxamide], the “loss of total weight” value ([1]; 25° C., relative humidity decreases from 95% to 5% RH) is reported as “about 8%” and the “moisture uptake (weight increase based on initial total sample weight at 25% RH)” value ([1]; from about 25% to about 95% RH at 25° C.) is reported as “about 7%”.

For `CN1C(=O)C(F)=C[C@]2(C)C3CC[C@]4(C)[C@@H](C(=O)NCc5nc6cccnc6[nH]5)CC[C@H]4C3CC[C@@H]12` (stereo partly drawn) [compound of formula I, N-(3H-imidazo[4,5-b]pyridin-2-ylmethyl)-2-fluoro-4-methyl-3-oxo-4-aza-5-alpha-androst-1-en-17-beta-carboxamide], the Emax at 10 µM [2] was less than 50% and the “partial agonist activity (Emax relative to the activity obtained with 100 nM R1881)” value [3] was “greater than 10%”.
